Measured values reported in ChEMBL document CHEMBL1201862, “PubChem BioAssay data set” (2004).
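48-hour exposure; five concentrations; linearly interpolated endpoints. The concentration for 50% growth inhibition is given as GI50.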 Calls of active or inactive are those of the source. No stated cut-off is given here; in the data, active = GI50 up to about 1.1 µM and inactive = higher.

What was measured:
Assay in all cases: growth of human tumour cells (NCI), 48 h
TK-10 = system: TK-10
HOP-18 = system: HOP-18
LOX IMVI = system: LOX IMVI
HCT-15 = system: HCT-15
IGROV-1 = system: IGROV-1
KM12 = system: KM12
NCI-H522 = system: NCI-H522
Malme-3M = system: Malme-3M
HCC 2998 = system: HCC 2998
HT-29 = system: HT-29
NCI-H23 = system: NCI-H23
HCT-116 = system: HCT-116
CCRF-CEM = system: CCRF-CEM
M19-MEL = system: M19-MEL
SF-539 = system: SF-539
ACHN = system: ACHN
SNB-19 = system: SNB-19
SNB-78 = system: SNB-78
DMS-273 = system: DMS-273
OVCAR-3 = system: OVCAR-3
M14 = system: M14
SR = system: SR
MOLT-4 = system: MOLT-4
NCI-H226 = system: NCI-H226
CAKI-1 = system: CAKI-1
LXFL 529 = system: LXFL 529
HOP-62 = system: HOP-62
XF498 = system: XF498
786-0 = system: 786-0
HOP-92 = system: HOP-92
K562 = system: K562
SF-268 = system: SF-268
SK-MEL-5 = system: SK-MEL-5
A498 = system: A498
UACC-257 = system: UACC-257
A549 = system: A549
SF-295 = system: SF-295
OVCAR-5 = system: OVCAR-5
U-251 = system: U-251
SN12C = system: SN12C
SW-620 = system: SW-620
OVCAR-8 = system: OVCAR-8
UO-31 = system: UO-31
NCI-H460 = system: NCI-H460
SK-OV-3 = system: SK-OV-3
COLO 205 = system: COLO 205
OVCAR-4 = system: OVCAR-4
HL-60 = system: HL-60
SK-MEL-2 = system: SK-MEL-2
SK-MEL-28 = system: SK-MEL-28
RXF 631 = system: RXF 631
RXF 393 = system: RXF 393
DLD-1 = system: DLD-1
SNB-75 = system: SNB-75
DMS-114 = system: DMS-114
UACC-62 = system: UACC-62
RPMI-8226 = system: RPMI-8226
KM-20L2 = system: KM-20L2

Measured: GI50

CCCCN(CCCC)C(=O)C(=O)C(C(=O)C(=O)OC)c1nc2ccccc2o1 (configuration not stated)
inactive: TK-10 > 100 µM | HOP-18 > 100 µM | LOX IMVI 44.8 µM | IGROV-1 50.8 µM | KM12 > 100 µM | NCI-H522 > 100 µM | Malme-3M > 100 µM | HCC 2998 > 100 µM | HT-29 > 100 µM | NCI-H23 > 100 µM | HCT-116 67.9 µM | CCRF-CEM 34.8 µM | M19-MEL > 100 µM | SF-539 > 100 µM | ACHN > 100 µM | SNB-19 > 100 µM | SNB-78 > 100 µM | DMS-273 > 100 µM | OVCAR-3 78.5 µM | M14 > 100 µM | SR 48.8 µM | MOLT-4 29 µM | NCI-H226 > 100 µM | CAKI-1 > 100 µM | LXFL 529 > 100 µM | HOP-62 74.5 µM | XF498 64.3 µM | 786-0 > 100 µM | HOP-92 > 100 µM | K562 65.9 µM | SF-268 > 100 µM | SK-MEL-5 62.7 µM | A498 > 100 µM | UACC-257 > 100 µM | A549 > 100 µM | SF-295 > 100 µM | OVCAR-5 > 100 µM | U-251 90.6 µM | SN12C > 100 µM | SW-620 87.5 µM | OVCAR-8 > 100 µM | UO-31 > 100 µM | NCI-H460 > 100 µM | SK-OV-3 > 100 µM | COLO 205 > 100 µM | OVCAR-4 > 100 µM | HL-60 69.3 µM | SK-MEL-2 > 100 µM | SK-MEL-28 > 100 µM | RXF 631 79.3 µM | RXF 393 17.5 µM | DLD-1 53.8 µM | SNB-75 > 100 µM | DMS-114 54 µM
44.5 µM: HCT-15

O=C1/C(=C/c2ccc(C(=O)O)cc2)CNC/C1=C\c1ccc(C(=O)O)cc1
> 100 µM: HCT-15
inactive: TK-10 > 100 µM | HOP-18 > 100 µM | IGROV-1 > 100 µM | KM12 > 100 µM | Malme-3M > 100 µM | UACC-62 > 100 µM | HCC 2998 > 100 µM | HT-29 > 100 µM | NCI-H23 > 100 µM | HCT-116 > 100 µM | CCRF-CEM > 100 µM | M19-MEL > 100 µM | SF-539 > 100 µM | ACHN > 100 µM | SNB-78 > 100 µM | DMS-273 > 100 µM | OVCAR-3 > 100 µM | M14 > 100 µM | SR > 100 µM | MOLT-4 > 100 µM | NCI-H226 > 100 µM | LXFL 529 > 100 µM | HOP-62 > 100 µM | XF498 > 100 µM | 786-0 > 100 µM | HOP-92 > 100 µM | K562 > 100 µM | SF-268 > 100 µM | SK-MEL-5 > 100 µM | A498 > 100 µM | UACC-257 > 100 µM | A549 > 100 µM | SF-295 > 100 µM | OVCAR-5 > 100 µM | U-251 > 100 µM | SN12C > 100 µM | OVCAR-8 > 100 µM | UO-31 > 100 µM | NCI-H460 > 100 µM | RPMI-8226 > 100 µM | SK-OV-3 > 100 µM | COLO 205 > 100 µM | OVCAR-4 > 100 µM | HL-60 > 100 µM | SK-MEL-28 > 100 µM | RXF 631 > 100 µM | RXF 393 > 100 µM | KM-20L2 > 100 µM | DLD-1 > 100 µM | SNB-75 > 100 µM | DMS-114 > 100 µM
